Experimental data published in ChEMBL document CHEMBL5131414, “Design, synthesis, and evaluation of phenylpiperazine-phenylacetate derivatives as rapid recovery hypnotic agents” (Bioorg Med Chem Lett, 2022).

What was measured:
[1] = Lipophilicity, logP of the compound; format: physicochemical; conditions: octanol/water
Mus musculus [2] = test: Anesthetic activity in mouse assessed as concentration required to induce hypnotic effect; format: functional, organism-based
[3] = Toxicity in mouse assessed as lethal dose; conditions: in vivo
[4] = Therapeutic index, ratio of LD50 for toxicity in mouse to HD50 for anesthetic activity in mouse; format: organism-based; conditions: in vivo, read-out: TI
[5] = molecular target: GABA-A receptor; anion channel (Homo sapiens) (UniProt P14867+P47870+P18507+P28472+P48169+Q99928+Q9UN88+P34903+O00591+O14764+Q8N1C3+P18505+P78334+P47869+P31644+Q16445); test: Inhibition of GABAA receptor (unknown origin) at 50 uM by radioligand receptor binding assay relative to control; format: protein-complex assay
Mus musculus [6] = test: Anesthetic activity in mouse assessed as onset time; format: functional
Mus musculus [7] = test: Anesthetic activity in mouse assessed as time duration of loss of righting reflex; format: functional
Mus musculus [8] = test: Anesthetic activity in mouse assessed as time to walk at 2 times of HD50 concentration; format: functional
Rattus norvegicus [9] = test: Anesthetic activity in rat assessed as concentration required to induce hypnotic effect; format: functional, organism-based
[10] = Toxicity in rat assessed as lethal dose; conditions: in vivo
[11] = Therapeutic index, ratio of LD50 for toxicity in rat to HD50 for anesthetic activity in rat; conditions: read-out: TI
Oryctolagus cuniculus [12] = test: Anesthetic activity in rabbit assessed as concentration required to induce hypnotic effect; format: functional, organism-based
[13] = Toxicity in rabbit assessed as lethal dose; design: species or system Oryctolagus cuniculus; conditions: in vivo
[14] = Therapeutic index, ratio of LD50 for toxicity in rabbit to HD50 for anesthetic activity in rabbit; conditions: read-out: TI
Rattus norvegicus [15] = test: Anesthetic activity in rat assessed as onset time; format: functional
Rattus norvegicus [16] = test: Anesthetic activity in rat assessed as time duration of loss of righting reflex; format: functional
Rattus norvegicus [17] = test: Anesthetic activity in rat assessed as time to walk at 2 times of HD50 concentration; format: functional
Oryctolagus cuniculus [18] = test: Anesthetic activity in rabbit assessed as onset time; format: functional
Oryctolagus cuniculus [19] = test: Anesthetic activity in rabbit assessed as time duration of loss of righting reflex; format: functional
Oryctolagus cuniculus [20] = test: Anesthetic activity in rabbit assessed as time to walk at 2 times of HD50 concentration; format: functional

SMILES	logP [1]	HD50 (median hypnotic dose) (Mus musculus [2]) [mg/kg]	LD50 [3] [mg/kg]	selectivity ratio [4]	inhibition [5] [%]	also measured
CCCOC(=O)Cc1ccc(OCC(=O)N2CCN(c3ccccc3)CC2)c(OC)c1	3.3	33.2	190	5.7	35.6	–
CCOC(=O)Cc1ccc(OCC(=O)N2CCN(c3cccc(Cl)c3Cl)CC2)c(OCC)c1	4.3	36.5	237	6.5	42.1	–
COc1cc(CC(=O)OCC(F)(F)F)ccc1OCC(=O)N1CCN(c2cccc(Cl)c2Cl)CC1	4.6	34.5	225	6.5	39.4	–
COc1cc(CC(=O)OCC(F)(F)F)ccc1OCC(=O)N1CCN(c2ccccc2)CC1	3.4	30.8	200	6.5	29.9	–
CCOc1cc(CC(=O)OC(C)C)ccc1OCC(=O)N1CCN(c2ccccc2)CC1	3.5	36.8	265	7.2	54.2	–
CCOc1cc(CC(=O)OCC(F)(F)F)ccc1OCC(=O)N1CCN(c2cccc(C(F)(F)F)c2)CC1	4.7	31.2	198	6.3	38.8	–
CCCOC(=O)Cc1ccc(OCC(=O)N2CCN(c3cccc(Cl)c3Cl)CC2)c(OCC)c1	4.7	38.6	201	5.2	33.3	–
CCCOC(=O)Cc1ccc(OCC(=O)N(CC)CC)c(OCC)c1 [AZD-3043]	2.5	17.6	–	6	70.2	Time (Mus musculus [6]): 5.6 s; Time (Mus musculus [7]): 63.8 s; Time (Mus musculus [8]): 46.7 s; EC50 (Rattus norvegicus [9]): 7.9 mg/kg; LD50 [10]: 79.8 mg/kg; selectivity ratio [11]: 10.1; EC50 (Oryctolagus cuniculus [12]): 4.6 mg/kg; LD50 [13]: 77.3 mg/kg; selectivity ratio [14]: 16.8; Time (Rattus norvegicus [15]): 12.4 s; Time (Rattus norvegicus [16]): 74.2 s; Time (Rattus norvegicus [17]): 38.4 s; Time (Oryctolagus cuniculus [18]): 19.8 s; Time (Oryctolagus cuniculus [19]): 221.6 s; Time (Oryctolagus cuniculus [20]): 89.6 s
CCOc1cc(CC(=O)OC(C)C)ccc1OCC(=O)N1CCN(c2cccc(Cl)c2Cl)CC1	4.6	39.5	254	6.4	35.9	–
CCOC(=O)Cc1ccc(OCC(=O)N2CCN(c3cccc(C)c3C)CC2)c(OCC)c1	4.1	32.2	209	6.5	38.7	–
